Assay results reported in patent publication US8076266B2, “Urea phosphite fungicide” (Lidochem, Inc., priority 2004, dated 2011).

Tests used:
[1] = test system: Downey Mildew fungus on lettuce; settings: in vivo
[2] = format: physicochemical
From the text: […]. 55 grams phosphorous acid crystals were blended with 42 grams urea pills and stirred in a covered container at room temperature. […].

Compound	Downey mildew rating, Mean of 4 Replications [1]	Pathological acerbation [1]	Ranking [1]	Stability of liquid on heating / cooling [2]
NC(N)=O.OP(O)O [Urea Phosphite]	3.93	no indication of pathological acerbation	1	
Urea Phosphite [Example 4]				stable upon heating to 90 °C and crystals formed upon cooling
potassium phosphite [1 (potassium phosphite)]	4.62		3	
potassium phosphite [2 (potassium phosphite)]	4.81		4	
urea phosphite [Example 2]				stable upon heating to 90 °C or cooling to 0 °C
